Assay results as given in ChEMBL document CHEMBL1909046, “DrugMatrix in vitro pharmacology data”.

Key:
[1] = DRUGMATRIX: Sodium/nucleoside co-transporter radioligand binding (ligand: nitrobenzylthioinosine); type: cell membranes, Cavia porcellus, Dunkin-Hartley, Cerebral cortex, Membrane; settings: Not Active = under 50% inhibition at 10 µM
[2] = target: 5-hydroxytryptamine receptor 2B (Homo sapiens, UniProt P41595); type: cell membranes, CHO-K1, Membrane; settings: cho-k1; also: in other assays of this panel Not Active means under 50% inhibition at 10 µM
Sequence of 5-hydroxytryptamine receptor 2B (P41595 whole entry): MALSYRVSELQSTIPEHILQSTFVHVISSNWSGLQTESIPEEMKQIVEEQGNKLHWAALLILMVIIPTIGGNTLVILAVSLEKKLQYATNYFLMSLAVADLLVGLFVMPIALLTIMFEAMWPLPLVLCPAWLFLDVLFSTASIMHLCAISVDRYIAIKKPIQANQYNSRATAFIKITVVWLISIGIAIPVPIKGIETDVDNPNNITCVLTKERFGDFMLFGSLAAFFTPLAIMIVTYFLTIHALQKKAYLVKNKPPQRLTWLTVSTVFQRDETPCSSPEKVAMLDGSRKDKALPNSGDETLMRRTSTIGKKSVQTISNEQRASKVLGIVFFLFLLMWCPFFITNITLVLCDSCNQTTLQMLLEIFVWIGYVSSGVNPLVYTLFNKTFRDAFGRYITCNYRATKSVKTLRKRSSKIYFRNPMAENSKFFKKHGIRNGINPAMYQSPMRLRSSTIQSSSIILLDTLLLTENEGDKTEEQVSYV

[3] = DRUGMATRIX: Serotonin (5-Hydroxytryptamine) 5-HT3 radioligand binding (ligand: [3H] GR-65630); type: cell membranes, Membrane; settings: hek293; Not Active = under 50% inhibition at 10 µM
[4] = target: 5-hydroxytryptamine receptor 6 (Homo sapiens, UniProt P50406); type: cell membranes, HeLa, Membrane; settings: hela; also: in other assays of this panel Not Active means under 50% inhibition at 10 µM
Sequence of 5-hydroxytryptamine receptor 6 (P50406 whole entry): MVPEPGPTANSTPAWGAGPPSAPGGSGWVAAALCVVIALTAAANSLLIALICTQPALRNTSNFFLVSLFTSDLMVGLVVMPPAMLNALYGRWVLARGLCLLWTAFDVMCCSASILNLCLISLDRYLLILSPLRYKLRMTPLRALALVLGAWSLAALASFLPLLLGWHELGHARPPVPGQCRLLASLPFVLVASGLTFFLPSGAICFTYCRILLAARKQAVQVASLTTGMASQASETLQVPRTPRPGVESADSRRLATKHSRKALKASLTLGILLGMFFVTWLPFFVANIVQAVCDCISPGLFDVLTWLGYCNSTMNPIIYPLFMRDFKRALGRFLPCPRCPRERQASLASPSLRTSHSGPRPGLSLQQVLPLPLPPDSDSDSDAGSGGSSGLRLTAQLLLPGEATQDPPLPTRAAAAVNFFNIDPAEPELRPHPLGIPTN

Endothelin-1 receptor = target: T1, Endothelin-1 receptor (Homo sapiens, UniProt P25101); type: cell membranes, Membrane; settings: cho-k1; also: in other assays of this panel Not Active means under 50% inhibition at 10 µM
T1 sequence (P25101 whole entry): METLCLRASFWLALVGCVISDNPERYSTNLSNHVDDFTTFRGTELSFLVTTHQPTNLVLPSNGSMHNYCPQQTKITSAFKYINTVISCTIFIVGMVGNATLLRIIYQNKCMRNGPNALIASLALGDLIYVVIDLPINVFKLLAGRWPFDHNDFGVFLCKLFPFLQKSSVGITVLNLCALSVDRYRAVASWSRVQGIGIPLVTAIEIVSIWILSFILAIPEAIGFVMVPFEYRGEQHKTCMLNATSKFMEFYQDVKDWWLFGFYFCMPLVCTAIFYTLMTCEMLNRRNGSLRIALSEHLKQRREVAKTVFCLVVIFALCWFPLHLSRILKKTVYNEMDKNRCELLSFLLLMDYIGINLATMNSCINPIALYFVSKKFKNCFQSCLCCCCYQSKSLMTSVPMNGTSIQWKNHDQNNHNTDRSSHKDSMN

[5] = DRUGMATRIX: Glutamate, AMPA radioligand binding (ligand: [3H] AMPA); type: cell membranes, Rattus norvegicus, Wistar, Cerebral cortex, Membrane; settings: Not Active = under 50% inhibition at 10 µM
[6] = target: T2, Polyunsaturated fatty acid lipoxygenase ALOX15 (Oryctolagus cuniculus, UniProt P12530); test: biochemical; type: tissue-based, Reticulocytes; settings: reticulocytes;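 also: inhibition of 15-lipoxygenase enzyme activity measured with linoleic acid as the substrate; in other assays of this panel Not Active means under 50% inhibition at 10 µM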
T2 sequence (P12530 whole entry): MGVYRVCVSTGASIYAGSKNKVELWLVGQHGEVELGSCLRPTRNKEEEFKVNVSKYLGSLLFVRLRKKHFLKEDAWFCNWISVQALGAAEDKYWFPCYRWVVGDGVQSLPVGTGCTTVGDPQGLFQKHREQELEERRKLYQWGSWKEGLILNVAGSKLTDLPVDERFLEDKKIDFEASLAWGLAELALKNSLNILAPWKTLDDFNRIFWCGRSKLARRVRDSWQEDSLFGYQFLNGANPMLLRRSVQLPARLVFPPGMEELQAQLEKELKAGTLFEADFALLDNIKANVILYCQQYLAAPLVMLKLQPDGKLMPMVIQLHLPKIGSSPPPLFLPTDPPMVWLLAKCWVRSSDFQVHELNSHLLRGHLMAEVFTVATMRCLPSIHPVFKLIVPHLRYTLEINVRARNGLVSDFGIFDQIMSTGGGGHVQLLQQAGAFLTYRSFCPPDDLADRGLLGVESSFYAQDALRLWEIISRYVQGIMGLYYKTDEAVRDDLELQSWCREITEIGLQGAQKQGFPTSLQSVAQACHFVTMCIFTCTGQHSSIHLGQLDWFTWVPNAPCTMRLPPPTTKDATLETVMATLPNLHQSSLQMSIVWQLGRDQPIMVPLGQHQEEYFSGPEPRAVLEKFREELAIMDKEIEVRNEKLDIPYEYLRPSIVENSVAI

[7] = target: T3, Muscarinic acetylcholine receptor M4 (Homo sapiens, UniProt P08173); type: cell membranes, CHO-K1, Membrane; settings: cho-k1; also: in other assays of this panel Not Active means under 50% inhibition at 10 µM
T3 sequence (P08173 whole entry): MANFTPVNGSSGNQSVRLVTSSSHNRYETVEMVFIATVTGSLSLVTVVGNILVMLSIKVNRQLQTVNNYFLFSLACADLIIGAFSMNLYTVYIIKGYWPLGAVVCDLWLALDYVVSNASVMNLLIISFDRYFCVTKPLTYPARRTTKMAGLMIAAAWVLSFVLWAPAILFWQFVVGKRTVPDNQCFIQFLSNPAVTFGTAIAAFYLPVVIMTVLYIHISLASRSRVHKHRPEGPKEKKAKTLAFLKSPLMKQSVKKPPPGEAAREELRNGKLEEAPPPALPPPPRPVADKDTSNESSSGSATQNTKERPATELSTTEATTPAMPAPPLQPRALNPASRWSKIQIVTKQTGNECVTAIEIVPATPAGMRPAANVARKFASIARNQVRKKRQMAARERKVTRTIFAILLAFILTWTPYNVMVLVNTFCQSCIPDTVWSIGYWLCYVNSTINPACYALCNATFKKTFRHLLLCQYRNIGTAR

Nitric oxide synthase 1 = Nitric oxide synthase 1 (Rattus norvegicus, UniProt P29476); type: tissue-based, Cerebellum; also: in other assays of this panel Not Active means under 50% inhibition at 10 µM
Sequence of Nitric oxide synthase 1 (P29476 whole entry): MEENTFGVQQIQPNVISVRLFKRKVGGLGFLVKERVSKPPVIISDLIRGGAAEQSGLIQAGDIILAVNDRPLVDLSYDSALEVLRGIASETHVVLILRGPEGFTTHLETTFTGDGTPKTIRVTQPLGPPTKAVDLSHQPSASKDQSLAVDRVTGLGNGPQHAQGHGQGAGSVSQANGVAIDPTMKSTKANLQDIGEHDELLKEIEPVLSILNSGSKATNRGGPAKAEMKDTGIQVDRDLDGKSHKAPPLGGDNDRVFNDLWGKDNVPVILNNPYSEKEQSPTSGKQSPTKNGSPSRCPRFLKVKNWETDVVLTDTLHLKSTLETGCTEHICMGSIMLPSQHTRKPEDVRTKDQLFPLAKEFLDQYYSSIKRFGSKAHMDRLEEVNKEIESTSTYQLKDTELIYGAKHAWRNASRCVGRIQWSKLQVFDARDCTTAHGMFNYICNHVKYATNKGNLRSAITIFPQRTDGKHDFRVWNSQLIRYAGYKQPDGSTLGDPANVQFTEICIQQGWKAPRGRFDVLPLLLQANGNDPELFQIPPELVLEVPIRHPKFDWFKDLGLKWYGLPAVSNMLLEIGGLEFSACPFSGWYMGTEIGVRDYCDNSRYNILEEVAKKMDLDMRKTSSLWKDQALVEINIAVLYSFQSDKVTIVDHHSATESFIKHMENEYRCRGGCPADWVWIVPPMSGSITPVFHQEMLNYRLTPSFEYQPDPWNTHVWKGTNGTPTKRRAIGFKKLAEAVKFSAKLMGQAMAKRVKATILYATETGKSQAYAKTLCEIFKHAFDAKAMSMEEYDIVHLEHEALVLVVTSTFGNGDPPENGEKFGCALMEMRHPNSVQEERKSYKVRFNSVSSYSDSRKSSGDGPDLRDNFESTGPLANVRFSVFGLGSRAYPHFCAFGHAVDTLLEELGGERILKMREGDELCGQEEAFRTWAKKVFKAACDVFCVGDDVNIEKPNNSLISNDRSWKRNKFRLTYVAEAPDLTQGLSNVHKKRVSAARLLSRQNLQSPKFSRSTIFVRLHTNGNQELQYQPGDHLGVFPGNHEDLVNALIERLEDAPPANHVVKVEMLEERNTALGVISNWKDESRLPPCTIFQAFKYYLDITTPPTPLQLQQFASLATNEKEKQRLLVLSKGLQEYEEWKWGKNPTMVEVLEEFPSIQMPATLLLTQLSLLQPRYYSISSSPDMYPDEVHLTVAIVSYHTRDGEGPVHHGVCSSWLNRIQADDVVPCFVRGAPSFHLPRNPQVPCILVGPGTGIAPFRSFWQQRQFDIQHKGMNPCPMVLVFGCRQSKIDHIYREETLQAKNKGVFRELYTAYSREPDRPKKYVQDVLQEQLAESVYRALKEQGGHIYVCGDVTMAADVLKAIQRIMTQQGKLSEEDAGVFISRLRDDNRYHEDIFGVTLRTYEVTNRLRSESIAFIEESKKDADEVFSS

[8] = DRUGMATRIX: Phosphodiesterase PDE4 enzyme inhibition (substrate: [3H]cAMP + cAMP); settings: u-937; Not Active = under 50% inhibition at 10 µM
[9] = target: Mitogen-activated protein kinase 14 (Homo sapiens, UniProt Q16539); parameters: species or system Escherichia coli
Sequence of Mitogen-activated protein kinase 14 (Q16539 whole entry): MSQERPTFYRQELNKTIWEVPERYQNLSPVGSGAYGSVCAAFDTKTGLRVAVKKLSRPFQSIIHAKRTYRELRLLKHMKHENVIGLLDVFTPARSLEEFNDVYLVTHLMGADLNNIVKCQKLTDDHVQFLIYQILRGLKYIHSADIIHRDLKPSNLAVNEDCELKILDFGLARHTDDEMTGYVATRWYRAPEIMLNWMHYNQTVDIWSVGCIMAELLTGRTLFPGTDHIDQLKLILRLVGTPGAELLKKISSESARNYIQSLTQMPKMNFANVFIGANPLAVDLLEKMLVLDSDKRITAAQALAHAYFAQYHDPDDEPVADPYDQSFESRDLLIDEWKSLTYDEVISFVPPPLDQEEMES

[10] = target: Tyrosine-protein kinase Fyn (Homo sapiens, UniProt P06241); test: biochemical; type: cell-based, Insect cells; settings: insect cells
Sequence of Tyrosine-protein kinase Fyn (P06241 whole entry): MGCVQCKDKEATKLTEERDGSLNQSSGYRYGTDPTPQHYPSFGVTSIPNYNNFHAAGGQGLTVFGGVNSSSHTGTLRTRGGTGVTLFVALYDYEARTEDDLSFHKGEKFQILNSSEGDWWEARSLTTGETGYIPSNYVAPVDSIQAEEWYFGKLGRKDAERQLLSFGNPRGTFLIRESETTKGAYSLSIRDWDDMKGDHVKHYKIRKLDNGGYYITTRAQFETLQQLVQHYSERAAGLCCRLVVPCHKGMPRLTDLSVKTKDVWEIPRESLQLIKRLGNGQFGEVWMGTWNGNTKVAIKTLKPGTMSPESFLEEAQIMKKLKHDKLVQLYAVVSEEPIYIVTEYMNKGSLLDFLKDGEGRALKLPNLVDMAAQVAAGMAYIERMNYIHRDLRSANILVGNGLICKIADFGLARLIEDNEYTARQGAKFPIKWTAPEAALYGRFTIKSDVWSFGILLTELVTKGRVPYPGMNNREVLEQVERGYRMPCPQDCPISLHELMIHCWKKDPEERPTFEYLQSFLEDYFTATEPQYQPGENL

[11] = DRUGMATRIX: Purinergic P2X radioligand binding (ligand: [3H] alpha, beta-Methylene-ATP); type: cell membranes, Oryctolagus cuniculus, New Zealand albino, Urinary bladder, Membrane; settings: Not Active = under 50% inhibition at 10 µM
Cytochrome P450 2A6 = target: T4, Cytochrome P450 2A6 (Homo sapiens, UniProt P11509); settings: bti-tn-5b1-4; also: in other assays of this panel Not Active means under 50% inhibition at 10 µM
T4 sequence (P11509 whole entry): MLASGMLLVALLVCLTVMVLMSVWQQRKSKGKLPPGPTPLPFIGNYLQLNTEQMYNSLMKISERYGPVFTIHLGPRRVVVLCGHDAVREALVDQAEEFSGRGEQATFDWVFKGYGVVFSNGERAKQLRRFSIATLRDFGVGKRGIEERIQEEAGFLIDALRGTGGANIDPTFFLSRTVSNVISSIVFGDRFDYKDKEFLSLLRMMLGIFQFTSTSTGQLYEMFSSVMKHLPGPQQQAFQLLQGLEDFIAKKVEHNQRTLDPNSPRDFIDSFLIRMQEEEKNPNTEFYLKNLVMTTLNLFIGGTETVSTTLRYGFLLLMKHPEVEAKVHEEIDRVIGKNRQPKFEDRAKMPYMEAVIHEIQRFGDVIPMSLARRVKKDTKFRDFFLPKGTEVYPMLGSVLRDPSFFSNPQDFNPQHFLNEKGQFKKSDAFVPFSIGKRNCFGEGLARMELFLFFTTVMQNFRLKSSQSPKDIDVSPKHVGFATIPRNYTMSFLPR

Nc1nc2c(ncn2COC(CO)CO)c(=O)[nH]1 [GANCICLOVIR]
Not Active: IC50 [1] | Ki [1] | IC50 [2] | IC50 [3] | Ki [3] | IC50 [4] | IC50 (Endothelin-1 receptor) | IC50 [5] | Ki [5] | IC50 [6] | IC50 [7] | IC50 (Nitric oxide synthase 1) | IC50 [8] | Ki [8] | IC50 [9] | IC50 [10] | IC50 [11] | Ki [11] | IC50 (Cytochrome P450 2A6) | Ki (Cytochrome P450 2A6)

O=C1CCc2cc(OCCCCc3nnnn3C3CCCCC3)ccc2N1 [CILOSTAZOL]
Not Active: IC50 [1] | Ki [1] | IC50 [2] | IC50 [3] | Ki [3] | IC50 [4] | IC50 (Endothelin-1 receptor) | IC50 [5] | Ki [5] | IC50 [6] | IC50 [7] | IC50 (Nitric oxide synthase 1) | IC50 [8] | Ki [8] | IC50 [9] | IC50 [10] | IC50 [11] | Ki [11] | IC50 (Cytochrome P450 2A6) | Ki (Cytochrome P450 2A6)

COCc1c(C(C)C)nc(C(C)C)c(/C=C/[C@@H](O)C[C@@H](O)CC(=O)O)c1-c1ccc(F)cc1 [CERIVASTATIN]
Not Active: IC50 [1] | Ki [1] | IC50 [2] | IC50 [3] | Ki [3] | IC50 [4] | IC50 (Endothelin-1 receptor) | IC50 [5] | Ki [5] | IC50 [6] | IC50 [7] | IC50 (Nitric oxide synthase 1) | IC50 [8] | Ki [8] | IC50 [9] | IC50 [10] | IC50 [11] | Ki [11] | IC50 (Cytochrome P450 2A6) | Ki (Cytochrome P450 2A6)

O=C(O)c1cn(C2CC2)c2cc(N3CCNCC3)c(F)cc2c1=O [CIPROFLOXACIN]
Not Active: IC50 [1] | Ki [1] | IC50 [2] | IC50 [3] | Ki [3] | IC50 [4] | IC50 (Endothelin-1 receptor) | IC50 [5] | Ki [5] | IC50 [6] | IC50 [7] | IC50 (Nitric oxide synthase 1) | IC50 [8] | Ki [8] | IC50 [9] | IC50 [10] | IC50 [11] | Ki [11] | IC50 (Cytochrome P450 2A6) | Ki (Cytochrome P450 2A6)

CC1(C)S[C@@H]2[C@H](NC(=O)[C@H](N)c3ccc(O)cc3)C(=O)N2[C@H]1C(=O)O [AMOXICILLIN]
Not Active: IC50 [1] | Ki [1] | IC50 [2] | IC50 [3] | Ki [3] | IC50 [4] | IC50 (Endothelin-1 receptor) | IC50 [5] | Ki [5] | IC50 [6] | IC50 [7] | IC50 (Nitric oxide synthase 1) | IC50 [8] | Ki [8] | IC50 [9] | IC50 [10] | IC50 [11] | Ki [11] | IC50 (Cytochrome P450 2A6) | Ki (Cytochrome P450 2A6)

CCOC(=O)OC(C)OC1=C(C(=O)Nc2ccccn2)N(C)S(=O)(=O)c2ccccc21 (stereo not given) [AMPIROXICAM]
Not Active: IC50 [1] | Ki [1] | IC50 [2] | IC50 [3] | Ki [3] | IC50 [4] | IC50 (Endothelin-1 receptor) | IC50 [5] | Ki [5] | IC50 [6] | IC50 [7] | IC50 (Nitric oxide synthase 1) | IC50 [8] | Ki [8] | IC50 [9] | IC50 [10] | IC50 [11] | Ki [11] | IC50 (Cytochrome P450 2A6) | Ki (Cytochrome P450 2A6)

NCC1(CC(=O)O)CCCCC1 [GABAPENTIN]
Not Active: IC50 [1] | Ki [1] | IC50 [2] | IC50 [3] | Ki [3] | IC50 [4] | IC50 (Endothelin-1 receptor) | IC50 [5] | Ki [5] | IC50 [6] | IC50 [7] | IC50 (Nitric oxide synthase 1) | IC50 [8] | Ki [8] | IC50 [9] | IC50 [10] | IC50 [11] | Ki [11] | IC50 (Cytochrome P450 2A6) | Ki (Cytochrome P450 2A6)

CCc1ccc(C(=O)C(C)CN2CCCCC2)cc1 (stereo not given) [EPERISONE]
Not Active: IC50 [1] | Ki [1] | IC50 [2] | IC50 [3] | Ki [3] | IC50 [4] | IC50 (Endothelin-1 receptor) | IC50 [5] | Ki [5] | IC50 [6] | IC50 [7] | IC50 (Nitric oxide synthase 1) | IC50 [8] | Ki [8] | IC50 [9] | IC50 [10] | IC50 [11] | Ki [11] | IC50 (Cytochrome P450 2A6) | Ki (Cytochrome P450 2A6)
